# Where two headings read alike, the source gives them in different places.
# Columns and labels:
# Assay type in all cases: cell-based, human
# SNB-75 = assay: SRB anticancer assay, CNS; design: Log10GI50: unit not given here
# NCI/ADR-RES = assay: SRB anticancer assay, ovarian; design: Log10GI50: unit not given here; conditions: for Log10GI50: present compounds
# MALME-3M = assay: SRB anticancer assay, melanoma; design: Log10GI50: unit not given here
# UACC-257 = assay: SRB anticancer assay, melanoma
# EKVX = assay: SRB anticancer assay, non-small lung; design: Log10GI50: unit not given here
# KM12 = assay: SRB anticancer assay, colon; conditions: Homo sapiens, KM12, 48 h
# SF-295 = assay: SRB anticancer assay, CNS; design: Log10GI50: unit not given here
# OVCAR-4 = assay: SRB anticancer assay, ovarian; conditions: Homo sapiens, OVCAR-4, 48 h
# MDA-MB-231/ATCC = assay: SRB anticancer assay, breast; design: Log10GI50: unit not given here; conditions: for GI50: Homo sapiens, MDA-MB-231, 48 h, 48 h, read-out: GI50
# A549/ATCC = assay: SRB anticancer assay, non-small lung; design: Log10GI50: unit not given here
# Colon cancer cell lines = assay: SRB anticancer assay, panel result
# Experimental: (§1) The compounds were evaluated for anticancer activity against sixty human cancer cells derived from nine cancer types (leukemia cell line, non-small-cell lung cell line, colon cell line, CNS cell line, melanoma cell line, ovarian cell line, prostate cell line, renal cancer cell line and breast cancer cell line) as shown in Table 1. For each compound, dose response curves for each cell line were measured at a minimum of five concentrations at 10 fold dilutions. A protocol of 48 h continuous drug exposure was used and a sulforhodamine B (SRB) protein assay was used to estimate cell viability or growth.
# [1] = tested on: Non-small cell lung cancer cell lines; assay: SRB anticancer assay, panel result
# Experimental: as §1
# [2] = tested on: Melanoma cancer cell lines; assay: SRB anticancer assay, panel result
# Experimental: as §1
# [3] = tested on: Prostate cancer cell lines; assay: SRB anticancer assay, panel result
# Experimental: as §1
# Renal cancer cell lines = assay: SRB anticancer assay, panel result
# Experimental: as §1
# CNS cancer cell lines = assay: SRB anticancer assay, panel result
# Experimental: as §1
# [4] = tested on: Ovarian cancer cell lines; assay: SRB anticancer assay, panel result
# Experimental: as §1
# Breast cancer cell lines = assay: SRB anticancer assay, panel result
# Experimental: as §1
# [5] = tested on: Leukemia cancer cell lines; assay: SRB anticancer assay, panel result
# Experimental: as §1
# TK-10 = assay: SRB anticancer assay, renal; conditions: Homo sapiens, TK-10, 48 h
# OVCAR-3 = assay: SRB anticancer assay, ovarian; design: Log10GI50: unit not given here
# K-562 = assay: SRB anticancer assay, leukemia; design: Log10GI50: unit not given here
# HT29 = assay: SRB anticancer assay, colon; conditions: Homo sapiens, HT-29; HT29, 48 h
# HCT-116 = assay: SRB anticancer assay, colon; conditions: Homo sapiens, HCT-116, 48 h
# SK-MEL-5 = assay: SRB anticancer assay, melanoma; conditions: Homo sapiens, SK-MEL-5, 48 h
# HS 578T = assay: SRB anticancer assay, breast; design: Log10GI50: unit not given here
smiles,measurement,setting,value
"COc1cc(OC)cc(-c2cncn2-c2ccc(-c3nc4cc(OC)c(OC)c(OC)c4s3)cc2)c1 [Compound 7d, 2-(4-(5-(3,5-Dimethoxyphenyl)-1H-imidazol-1-yl)phenyl)-5,6,7-trimethoxybenzo[d]thiazole]",GI50,"SNB-75; Homo sapiens, SNB-75, 48 h",15 µM
same,Log10GI50,"SNB-75; SNB-75, present compounds",−4.82
same,GI50,"NCI/ADR-RES; Homo sapiens, NCI/ADR-RES, 48 h",11 µM
same,Log10GI50,NCI/ADR-RES; NCI/ADR-RES (row head NCI/ADR-),−4.96
same,Log10GI50,NCI/ADR-RES; listed as head printed RES (second line of NCI/ADR-RES),−4.30
same,GI50,"MALME-3M; Homo sapiens, Malme-3M, 48 h",9.58 µM
same,Log10GI50,"MALME-3M; MALME-3M, present compounds",−5.02
same,GI50,"UACC-257; Homo sapiens, UACC-257, 48 h",20.5 µM
same,Log10GI50,"UACC-257; UACC-257, present compounds",−4.69 log10(M)
same,GI50,"EKVX; Homo sapiens, 48 h",1.87 µM
same,Log10GI50,EKVX; present compounds,−5.73
same,GI50,KM12,5.54 µM
same,GI50,"SF-295; Homo sapiens, SF-295, 48 h",3.64 µM
same,Log10GI50,"SF-295; SF-295, present compounds",−5.44
same,GI50,OVCAR-4,6.67 µM
same,GI50,MDA-MB-231/ATCC; MDA-MB-231/ATCC (row head MDA-MB-),19.2 µM
same,GI50,MDA-MB-231/ATCC; row head printed 231/ATCC (second line of MDA-MB-231/ATCC),20.9 µM
same,Log10GI50,"MDA-MB-231/ATCC; MDA-MB-231/ATCC, present compounds",−4.72
same,GI50,"A549/ATCC; Homo sapiens, 48 h",5.59 µM
same,Log10GI50,A549/ATCC; present compounds,−5.25
same,mean graph midpoint value (MG_MID) of log10 TGI,"Colon cancer cell lines; Colon panel, total inhibition of net cell growth",>−4.0
same,LC50,"Colon cancer cell lines; Homo sapiens, Colon panel, 50% net cell death, read-out: mean graph midpoint value (MG_MID) of Log10 LC50 (converted)",> 100 µM
same,GI50,"Colon cancer cell lines; Homo sapiens, Colon panel, read-out: mean graph midpoint value (MG_MID) of Log10 GI50 (converted)",9.12 µM
same,GI50,"Colon cancer cell lines; Homo sapiens, seven colon cancer cell lines, exposure at least 48 h, read-out: GI50, range over the panel",3.76 to 13.7 µM
same,LC50,"[1]; Homo sapiens, Non-small cell lung panel, 50% net cell death, read-out: mean graph midpoint value (MG_MID) of Log10 LC50 (converted)",> 100 µM
same,GI50,"[1]; Homo sapiens, Non-small cell lung panel, read-out: mean graph midpoint value (MG_MID) of Log10 GI50 (converted)",15.1 µM
same,GI50,"[1]; Homo sapiens, nine Non-small cell lung cancer cell lines, exposure at least 48 h, read-out: GI50, range over the panel",1.87 to 86.5 µM
same,mean graph midpoint value (MG_MID) of log10 TGI,"[1]; Non-small cell lung panel, total inhibition of net cell growth",>−4.0
same,LC50,"[2]; Homo sapiens, Melanoma panel, 50% net cell death, read-out: mean graph midpoint value (MG_MID) of Log10 LC50 (converted)",> 100 µM
same,GI50,"[2]; Homo sapiens, Melanoma panel, read-out: mean graph midpoint value (MG_MID) of Log10 GI50 (converted)",9.33 µM
same,GI50,"[2]; Homo sapiens, nine melanoma cancer cell lines, exposure at least 48 h, read-out: GI50, range over the panel",2.85 to 31.6 µM
same,mean graph midpoint value (MG_MID) of log10 TGI,"[2]; Melanoma panel, total inhibition of net cell growth",−4.02
same,LC50,"[3]; Homo sapiens, Prostate panel, 50% net cell death, read-out: mean graph midpoint value (MG_MID) of Log10 LC50 (converted)",> 100 µM
same,GI50,"[3]; Homo sapiens, Prostate panel, read-out: mean graph midpoint value (MG_MID) of Log10 GI50 (converted)",10 µM
same,GI50,"[3]; Homo sapiens, two prostate cancer cell lines (PC-3, DU-145), exposure at least 48 h, read-out: GI50, range over the panel",3.17 to 31.1 µM
same,mean graph midpoint value (MG_MID) of log10 TGI,"[3]; Prostate panel, total inhibition of net cell growth",>−4.0
same,CC50,"Renal cancer cell lines; Homo sapiens, Renal panel, 50% net cell death, read-out: mean graph midpoint value (MG_MID) of Log10 LC50 (converted)",> 100 µM
same,GI50,"Renal cancer cell lines; Homo sapiens, Renal panel, read-out: mean graph midpoint value (MG_MID) of Log10 GI50 (converted)",14.8 µM
same,GI50,"Renal cancer cell lines; Homo sapiens, eight renal cancer cell lines, exposure at least 48 h, read-out: GI50, range over the panel",1.94 to 31.9 µM
same,mean graph midpoint value (MG_MID) of log10 TGI,"Renal cancer cell lines; Renal panel, total inhibition of net cell growth",−4.03
same,mean graph midpoint value (MG_MID) of log10 TGI,"CNS cancer cell lines; CNS panel, total inhibition of net cell growth",−4.11
same,CC50,"CNS cancer cell lines; Homo sapiens, CNS panel, 50% net cell death, read-out: mean graph midpoint value (MG_MID) of Log10 LC50 (converted)",> 100 µM
same,GI50,"CNS cancer cell lines; Homo sapiens, CNS panel, read-out: mean graph midpoint value (MG_MID) of Log10 GI50 (converted)",12 µM
same,GI50,"CNS cancer cell lines; Homo sapiens, six CNS cancer cell lines, exposure at least 48 h, read-out: GI50, range over the panel",3.64 to 22.1 µM
same,LC50,"[4]; Homo sapiens, Ovarian panel, 50% net cell death, read-out: mean graph midpoint value (MG_MID) of Log10 LC50 (converted)",> 100 µM
same,GI50,"[4]; Homo sapiens, Ovarian panel, read-out: mean graph midpoint value (MG_MID) of Log10 GI50 (converted)",16.2 µM
same,GI50,"[4]; Homo sapiens, seven ovarian cancer cell lines, exposure at least 48 h, read-out: GI50, range over the panel",6.07 to 49.9 µM
same,mean graph midpoint value (MG_MID) of log10 TGI,"[4]; Ovarian panel, total inhibition of net cell growth",−4.08
same,mean graph midpoint value (MG_MID) of log10 TGI,"Breast cancer cell lines; Breast panel, total inhibition of net cell growth",>−4.0
same,CC50,"Breast cancer cell lines; Homo sapiens, Breast panel, 50% net cell death, read-out: mean graph midpoint value (MG_MID) of Log10 LC50 (converted)",> 100 µM
same,GI50,"Breast cancer cell lines; Homo sapiens, Breast panel, read-out: mean graph midpoint value (MG_MID) of Log10 GI50 (converted)",9.12 µM
same,GI50,"Breast cancer cell lines; Homo sapiens, six breast cancer cell lines, exposure at least 48 h, read-out: GI50, range over the panel",4.02 to 20.9 µM
same,LC50,"[5]; Homo sapiens, Leukemia panel, 50% net cell death, read-out: mean graph midpoint value (MG_MID) of Log10 LC50 (converted)",> 100 µM
same,GI50,"[5]; Homo sapiens, Leukemia panel, read-out: mean graph midpoint value (MG_MID) of Log10 GI50 (converted)",3.72 µM
same,GI50,"[5]; Homo sapiens, six leukemia cancer cell lines, exposure at least 48 h, read-out: GI50, range over the panel",2.43 to 7.14 µM
same,mean graph midpoint value (MG_MID) of log10 TGI,"[5]; Leukemia panel, total inhibition of net cell growth",>−4.0
same,GI50,TK-10,26.4 µM
same,GI50,"OVCAR-3; Homo sapiens, OVCAR-3, 48 h",6.07 µM
same,Log10GI50,"OVCAR-3; OVCAR-3, present compounds",−5.22
same,GI50,"K-562; Homo sapiens, K562, K-562, 48 h",3.57 µM
same,Log10GI50,"K-562; K-562, present compounds",−5.45
same,GI50,HT29,8.33 µM
same,GI50,HCT-116,3.76 µM
same,GI50,SK-MEL-5,2.85 µM
same,GI50,"HS 578T; Homo sapiens, 48 h",6.71 µM
same,Log10GI50,HS 578T; present compounds,−4.68
